From the NIST ThermoML archive (doi:10.1021/acs.jced.9b00068) come the findings set out here.

Numbers after ± are expanded uncertainties.

Series [1] in a line: refractive index (Na D-line) (dimensionless). As to conditions: 298.15 K; 101.33 kPa; Liquid; Standard Abbe refractometry.
The conditions of series [2]: Liquid; for mass density: 298.15 K, 101.33 kPa, Vibrating tube method; for vapor or sublimation pressure: Ebulliometric method (Recirculating still).

For the compound `CCOC(=O)OCC` [diethyl carbonate], the refractive index in series [1] was 1.3821 ± 0.0004. For the same compound, in series [2], the mass density was 969.4 ± 0.2 kg/m3. For the same compound, in series [2] (399.6 K), the “vapor or sublimation pressure” value was 100.17 ± 2 kPa.

Regarding `COC(=O)OC` [dimethyl carbonate], in series [1], the refractive index was determined as 1.3664 ± 0.0004. In series [2], the mass density is recorded as 1062.7 ± 0.2 kg/m3. The “vapor or sublimation pressure” value in series [2] (362.5 K) worked out at 100.17 ± 2 kPa.

As for `CO` [methanol], the refractive index in series [1] stood at 1.3275 ± 0.0004. In addition, the mass density in series [2] is recorded as 787.7 ± 0.2 kg/m3. Further, the “vapor or sublimation pressure” value in series [2] (337.5 K) is recorded as 100.17 ± 2 kPa.

Take `COC(C)=O` [methyl ethanoate]: the refractive index in series [1] is 1.3587 ± 0.0004. In series [2], the mass density amounted to 927.4 ± 0.2 kg/m3. Besides, the “vapor or sublimation pressure” value in series [2] (330.2 K) worked out at 100.17 ± 2 kPa.

Consider `CCCCCOC(C)=O` [pentyl ethanoate], for which the refractive index in series [1] is reported as 1.3999 ± 0.0004. Further, in series [2], the mass density amounted to 872.3 ± 0.2 kg/m3. Moreover, the “vapor or sublimation pressure” value in series [2] (421.6 K) worked out at 100.17 ± 2 kPa.

Regarding `CCCOC(C)=O` [propyl ethanoate], the refractive index in series [1] is 1.3815 ± 0.0004. Further, in series [2], the mass density came to 882.9 ± 0.2 kg/m3. Moreover, in series [2] (373.8 K), the “vapor or sublimation pressure” value stood at 100.17 ± 2 kPa.
